Source: patent publication US11542263B2 (NeuroCycle Therapeutics, Inc., priority 2018, dated 2023)

Experiments:
[1] = Approximate solubility of TPA023B Phosphate in solvents (stepwise solvent addition); assay type: physicochemical; settings: thermodynamic from solid
Protocol: The total amount of solvent was recorded to calculate the approximate solubility in these solvents.

[2] = Hygroscopicity by dynamic vapor sorption (DVS); assay type: physicochemical
Protocol: The hygroscopicity of Phosphate Polymorph Form A was measured by Dynamic vapor sorption (DVS). […] After DVS, XRPD confirmed that the crystalline form was retained (see FIG. 19).

solubility ([1]; aqueous with cosolvent or surfactant or cyclodextrin, Acetone/H2O (1/1, v/v), 50° C.): 2000 to 10000 µg/mL | solubility ([1]; aqueous with cosolvent or surfactant or cyclodextrin, Acetone/H2O (1/1, v/v), RT): < 2000 µg/mL | solubility ([1]; aqueous with cosolvent or surfactant or cyclodextrin, EtOH/H2O (1/1, v/v), 50° C.): < 2000 µg/mL | solubility ([1]; aqueous with cosolvent or surfactant or cyclodextrin, EtOH/H2O (1/1, v/v), RT): < 2000 µg/mL | solubility ([1]; organic solvent or mixture, 1,4-Dioxane, 50° C.): 20000 to 25000 µg/mL | solubility ([1]; organic solvent or mixture, 1,4-Dioxane, RT): 20000 to 25000 µg/mL | solubility ([1]; organic solvent or mixture, Acetone, 50° C.): < 10000 µg/mL | solubility ([1]; organic solvent or mixture, Acetone, RT): 6000 to 10000 µg/mL | solubility ([1]; organic solvent or mixture, Acetonitrile (ACN), 50° C.): 2000 to 10000 µg/mL | solubility ([1]; organic solvent or mixture, Acetonitrile (ACN), RT): < 2000 µg/mL | solubility ([1]; organic solvent or mixture, DCM, 50° C.): 10000 to 50000 µg/mL | solubility ([1]; organic solvent or mixture, DCM, RT): 8000 to 10000 µg/mL | solubility ([1]; organic solvent or mixture, DMF, RT): > 100000 µg/mL | solubility ([1]; organic solvent or mixture, DMSO, RT): > 100000 µg/mL | solubility ([1]; organic solvent or mixture, EtOAc, 50° C.): < 2000 µg/mL | solubility ([1]; organic solvent or mixture, EtOAc, RT): < 2000 µg/mL | solubility ([1]; organic solvent or mixture, Ethanol, 50° C.): 10000 to 50000 µg/mL | solubility ([1]; organic solvent or mixture, Ethanol, RT): < 8000 µg/mL | solubility ([1]; organic solvent or mixture, Heptane, 50° C.): < 2000 µg/mL | solubility ([1]; organic solvent or mixture, Heptane, RT): < 2000 µg/mL | solubility ([1]; organic solvent or mixture, Isopropanol, 50° C.): 10000 to 50000 µg/mL | solubility ([1]; organic solvent or mixture, Isopropanol, RT): < 8000 µg/mL | solubility ([1]; organic solvent or mixture, MEK, 50° C.): < 10000 µg/mL | solubility ([1]; organic solvent or mixture, MEK, RT): 2000 to 4000 µg/mL | solubility ([1]; organic solvent or mixture, MTBE, 50° C.): < 2000 µg/mL | solubility ([1]; organic solvent or mixture, MTBE, RT): < 2000 µg/mL | solubility ([1]; organic solvent or mixture, Methanol, 50° C.): 10000 to 50000 µg/mL | solubility ([1]; organic solvent or mixture, Methanol, RT): 8000 to 10000 µg/mL | solubility ([1]; organic solvent or mixture, THF, 50° C.): < 50000 µg/mL | solubility ([1]; organic solvent or mixture, THF, RT): 20000 to 50000 µg/mL | solubility ([1]; organic solvent or mixture, Toluene, 50° C.): < 2000 µg/mL | solubility ([1]; organic solvent or mixture, Toluene, RT): < 2000 µg/mL | solubility ([1]; water, H2O, 50° C.): < 2000 µg/mL | solubility ([1]; water, H2O, RT): < 2000 µg/mL | reversible mass increase (hygroscopicity) [2]: about 1.08%
SMILES: CC(C)(O)c1cnn2c(-c3ccc(F)c(-c4c(F)cccc4C#N)c3)cnc2n1.O=P(O)(O)O [Phosphate Polymorphic Form A, 2′,6-difluoro-5′-[3-(1-hydroxy-1-methylethyl)-imidazo[1,2-b][1,2,4]triazin-7-yl]biphenyl-2-carbonitrile]
